Positions of bridges follow the written chain, without caps; N, C: chain ends. Non-standard residues stand in square brackets, D forms with d. Residues, ends and D or L forms follow the SMILES beside them. Trp(1-CH2COOH) = N[C@@H](Cc1cn(CC(=O)O)c2ccccc12)C(=O)O; Phe(4-Cl) = N[C@@H](Cc1ccc(Cl)cc1)C(=O)O; Phe(4-F) = N[C@@H](Cc1ccc(F)cc1)C(=O)O; Phe(4-Me) = Cc1ccc(C[C@H](N)C(=O)O)cc1; Hyp = O=C(O)[C@@H]1C[C@@H](O)CN1; Aad = N[C@@H](CCCC(=O)O)C(=O)O; NMeNle = CCCC[C@H](NC)C(=O)O; Pip = O=C(O)[C@@H]1CCCCN1; NMeA = CN[C@@H](C)C(=O)O; Dab = NCC[C@H](N)C(=O)O; Dap = NC[C@H](N)C(=O)O; Ava = NCCCCC(=O)O; βAla = NCCC(=O)O
What follows are molecules tested against T1, PD-1-Ig binding to PD-L1-TVMV-His (PD-L1-His) (Homo sapiens, UniProt Q9NZQ7) (assay: PD-1/PD-L1 Homogenous Time-Resolved Fluorescence (HTRF) binding assay). Conditions: PD-1-Ig (20 nM) / PD-L1-His (10 nM); range classes.
T1 construct: hPDL1(19-239)-TVMV-His; made in house; host or cells: HEK293T cells
T1 sequence (Q9NZQ7 with tags, fused parts or gaps): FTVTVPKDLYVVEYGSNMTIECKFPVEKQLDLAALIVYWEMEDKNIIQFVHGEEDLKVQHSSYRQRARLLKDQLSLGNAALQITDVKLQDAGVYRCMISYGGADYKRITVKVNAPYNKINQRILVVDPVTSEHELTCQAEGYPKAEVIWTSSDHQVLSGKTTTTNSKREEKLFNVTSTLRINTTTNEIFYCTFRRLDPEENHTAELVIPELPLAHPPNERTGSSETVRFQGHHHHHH
In short: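 In dPBS with 0.1% BSA and 0.05% Tween-20, inhibitors were preincubated 15 min with 10 nM PD-L1-His before 20 nM PD-1-Ig was added for another 15 min. Binding read by time-resolved FRET between Eu-cryptate anti-Ig (1 nM) and APC anti-His (20 nM).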

| SMILES | IC50 |
| --- | --- |
| CCCC[C@H]1C(=O)N(C)[C@@H](CCCC)C(=O)N[C@@H](CC(C)C)C(=O)N[C@H](C(=O)NCC(N)=O)CCNCC(=O)N[C@@H](Cc2ccc(O)cc2)C(=O)N(C)[C@@H](C)C(=O)N[C@@H](CC(N)=O)C(=O)N2CCC[C@H]2C(=O)N[C@@H](Cc2cnc[nH]2)C(=O)N[C@@H](CCC(N)=O)C(=O)N2C[C@H](O)C[C@H]2C(=O)N[C@@H](Cc2c[nH]c3ccccc23)C(=O)NCC(=O)N[C@@H](Cc2c[nH]c3ccccc23)C(=O)N1C [Example 10018] | 10 to 99 nM |
| CCCC[C@H]1C(=O)N(C)[C@@H](CCCC)C(=O)N[C@@H](CC(C)C)C(=O)N[C@H](C(N)=O)CNCC(=O)N[C@@H](Cc2ccc(F)cc2)C(=O)N2CCCC[C@H]2C(=O)N[C@@H](CC(=O)O)C(=O)N2CCC[C@H]2C(=O)N[C@@H](CCC(N)=O)C(=O)N[C@@H](CCC(=O)O)C(=O)N2C[C@H](O)C[C@H]2C(=O)N[C@@H](Cc2c[nH]c3ccccc23)C(=O)N[C@@H](CC(N)=O)C(=O)N[C@@H](Cc2cn(CC(=O)O)c3ccccc23)C(=O)N1C [Example 9040] | 1 to 9.9 nM |
| CCCC[C@H]1C(=O)N(C)[C@@H](CCCC)C(=O)N[C@@H](CC(C)C)C(=O)NCCCCC(=O)N[C@@H](Cc2ccc(C)cc2)C(=O)N2CCCC[C@H]2C(=O)N[C@@H](CC(N)=O)C(=O)N2CCC[C@H]2C(=O)N[C@@H](CN)C(=O)N[C@@H](CC(C)C)C(=O)N2C[C@H](O)C[C@H]2C(=O)N[C@@H](Cc2c[nH]c3ccccc23)C(=O)N[C@@H](CCN)C(=O)N[C@@H](Cc2cn(CC(=O)O)c3ccccc23)C(=O)N1C [Example 10540] (cyclo([Ava][Phe(4-Me)][Pip]NP[Dap]L[Hyp]W[Dab][Trp(1-CH2COOH)][NMeNle][NMeNle]L)) | 1 to 9.9 nM |
| CCCC[C@H]1C(=O)N(C)[C@@H](CCCC)C(=O)N[C@@H](CCC(=O)O)C(=O)N[C@H](C(=O)NCC(N)=O)CNCC(=O)N[C@@H](Cc2ccc(F)cc2)C(=O)N(C)[C@@H](C)C(=O)N[C@@H](CC(N)=O)C(=O)N2CCC[C@H]2C(=O)N[C@@H](CCC(N)=O)C(=O)N[C@@H](CCC(=O)O)C(=O)N2C[C@H](O)C[C@H]2C(=O)N[C@@H](Cc2c[nH]c3ccccc23)C(=O)N[C@@H](CC(N)=O)C(=O)N[C@@H](Cc2cn(CC(=O)O)c3ccccc23)C(=O)N1C [Example 9024] | 10 to 99 nM |
| CCCC[C@H]1C(=O)N(C)[C@@H](CCCC)C(=O)N[C@@H](CC(C)C)C(=O)N[C@H](C(=O)NCC(N)=O)CCCC(=O)N[C@@H](Cc2ccc(O)cc2)C(=O)N(C)[C@@H](C)C(=O)N[C@@H](CC(N)=O)C(=O)N2CCC[C@H]2C(=O)N[C@@H](CN)C(=O)N[C@@H](CCC(=O)O)C(=O)N2C[C@H](O)C[C@H]2C(=O)N[C@@H](Cc2c[nH]c3ccccc23)C(=O)N[C@@H](CCN)C(=O)N[C@@H](Cc2cn(CC(=O)O)c3ccccc23)C(=O)N1C [Example 10507] (Y[NMeA]NP[Dap]E[Hyp]W[Dab][Trp(1-CH2COOH)][NMeNle][NMeNle]L[Aad]G-NH2; lactam N-14) | 1 to 9.9 nM |
| CCCC[C@H]1C(=O)N(C)[C@@H](CCCC)C(=O)N[C@@H](CC(C)C)C(=O)NCCCCC(=O)N[C@@H](Cc2ccc(F)cc2)C(=O)N2CCCC[C@H]2C(=O)N[C@@H](CC(N)=O)C(=O)N2CCC[C@H]2C(=O)N[C@@H](CN)C(=O)N[C@@H](CCC(=O)O)C(=O)N2C[C@H](O)C[C@H]2C(=O)N[C@@H](Cc2c[nH]c3ccccc23)C(=O)N[C@@H](CCN)C(=O)N[C@@H](Cc2cn(CC(=O)O)c3ccccc23)C(=O)N1C [Example 10543] (cyclo([Ava][Phe(4-F)][Pip]NP[Dap]E[Hyp]W[Dab][Trp(1-CH2COOH)][NMeNle][NMeNle]L)) | 1 to 9.9 nM |
| CCCC[C@H]1C(=O)N(C)[C@@H](CCCC)C(=O)NC(CC(C)C)C(=O)N[C@H](C(N)=O)CNCC(=O)N[C@@H](Cc2ccc(O)cc2)C(=O)N(C)[C@@H](C)C(=O)N[C@@H](CC(N)=O)C(=O)N2CCC[C@H]2C(=O)N[C@@H](CN)C(=O)N[C@@H](CCC(=O)O)C(=O)N2C[C@H](O)C[C@H]2C(=O)N[C@@H](Cc2c[nH]c3ccccc23)C(=O)N[C@@H](CCN)C(=O)N[C@@H](Cc2cn(CC(=O)O)c3ccccc23)C(=O)N1C (some centres unmarked) [Example 1035] | 1 to 9.9 nM |
| CCCC[C@H]1C(=O)N(C)[C@@H](CCCC)C(=O)N[C@@H](CCC(=O)O)C(=O)N[C@H](C(N)=O)CCCC(=O)N[C@@H](Cc2ccc(O)cc2)C(=O)N2CCCC[C@H]2C(=O)N[C@@H](CC(N)=O)C(=O)N2CCC[C@H]2C(=O)N[C@@H](CN)C(=O)N[C@@H](CC(C)C)C(=O)N2C[C@H](O)C[C@H]2C(=O)N[C@@H](Cc2c[nH]c3ccccc23)C(=O)N[C@@H](CCN)C(=O)N[C@@H](Cc2cn(CC(=O)O)c3ccccc23)C(=O)N1C [Example 10561] (Y[Pip]NP[Dap]L[Hyp]W[Dab][Trp(1-CH2COOH)][NMeNle][NMeNle]E[Aad]-NH2; lactam N-14) | 1 to 9.9 nM |
| CCCC[C@H]1C(=O)N(C)[C@@H](CCCC)C(=O)N[C@@H](CC(C)C)C(=O)N[C@H](C(N)=O)CCCC(=O)N[C@@H](Cc2ccc(O)cc2)C(=O)N2CCCC[C@H]2C(=O)N[C@@H](CC(=O)O)C(=O)N2CCC[C@H]2C(=O)N[C@@H](CN)C(=O)N[C@@H](CC(C)C)C(=O)N2C[C@H](O)C[C@H]2C(=O)N[C@@H](Cc2c[nH]c3ccccc23)C(=O)N[C@@H](CCN)C(=O)N[C@@H](Cc2cn(CC(=O)O)c3ccccc23)C(=O)N1C [Example 10552] (Y[Pip]DP[Dap]L[Hyp]W[Dab][Trp(1-CH2COOH)][NMeNle][NMeNle]L[Aad]-NH2; lactam N-14) | 1 to 9.9 nM |
| CCCC[C@H]1C(=O)N(C)[C@@H](CCCC)C(=O)N[C@@H](CC(C)C)C(=O)N[C@H](C(N)=O)CNCC(=O)N[C@@H](Cc2ccc(O)cc2)C(=O)N2CCCC[C@H]2C(=O)N[C@@H](CC(N)=O)C(=O)N2CCC[C@H]2C(=O)N[C@@H](CN)C(=O)N[C@@H](CC(C)C)C(=O)N2C[C@H](O)C[C@H]2C(=O)N[C@@H](Cc2c[nH]c3ccccc23)C(=O)N[C@@H](CCN)C(=O)N[C@@H](Cc2cn(CC(=O)O)c3ccccc23)C(=O)N1C [Example 1038] | 1 to 9.9 nM |
| CCCC[C@H]1C(=O)N(C)[C@@H](CCCC)C(=O)N[C@@H](CC(C)C)C(=O)NCCC(=O)N[C@@H](Cc2ccc(O)cc2)C(=O)N(C)[C@@H](C)C(=O)N[C@@H](CC(N)=O)C(=O)N2CCC[C@H]2C(=O)N[C@@H](Cc2c[nH]cn2)C(=O)N[C@@H](CC(C)C)C(=O)N2C[C@H](O)C[C@H]2C(=O)N[C@@H](Cc2c[nH]c3ccccc23)C(=O)NCC(=O)N[C@@H](Cc2c[nH]c3ccccc23)C(=O)N1C [Example 5003] (cyclo(GW[NMeNle][NMeNle]L[βAla]Y[NMeA]NPHL[Hyp]W)) | 100 to 10000 nM |
| CCCC[C@H]1C(=O)N(C)[C@@H](CCCC)C(=O)N[C@@H](CCC(=O)O)C(=O)N[C@H](C(N)=O)CCCC(=O)N[C@@H](Cc2ccc(Cl)cc2)C(=O)N2CCCC[C@H]2C(=O)N[C@@H](CC(N)=O)C(=O)N2CCC[C@H]2C(=O)N[C@@H](CN)C(=O)N[C@@H](CC(C)C)C(=O)N2C[C@H](O)C[C@H]2C(=O)N[C@@H](Cc2c[nH]c3ccccc23)C(=O)N[C@@H](CCN)C(=O)N[C@@H](Cc2cn(CC(=O)O)c3ccccc23)C(=O)N1C [Example 10557] ([Phe(4-Cl)][Pip]NP[Dap]L[Hyp]W[Dab][Trp(1-CH2COOH)][NMeNle][NMeNle]E[Aad]-NH2; lactam N-14) | 1 to 9.9 nM |
| CCCC[C@H]1C(=O)N(C)[C@@H](CCCC)C(=O)N[C@@H](CC(C)C)C(=O)NCCCCC(=O)N[C@@H](Cc2ccc(O)cc2)C(=O)N(C)[C@@H](C)C(=O)N[C@@H](CC(N)=O)C(=O)N2CCC[C@H]2C(=O)N[C@@H](CN)C(=O)N[C@@H](CCC(=O)O)C(=O)N2C[C@H](O)C[C@H]2C(=O)N[C@@H](Cc2c[nH]c3ccccc23)C(=O)N[C@@H](CCN)C(=O)N[C@@H](Cc2cn(CC(=O)O)c3ccccc23)C(=O)N1C [Example 10506] (cyclo([Ava]Y[NMeA]NP[Dap]E[Hyp]W[Dab][Trp(1-CH2COOH)][NMeNle][NMeNle]L)) | 1 to 9.9 nM |
| CCCC[C@H]1C(=O)N(C)[C@@H](CCCC)C(=O)N[C@@H](CC(C)C)C(=O)N[C@H](C(=O)NCC(N)=O)CNCC(=O)N[C@@H](Cc2ccc(O)cc2)C(=O)N(C)[C@@H](C)C(=O)N[C@@H](CC(N)=O)C(=O)N2CCC[C@H]2C(=O)N[C@@H](CCC(N)=O)C(=O)N[C@@H](CCC(N)=O)C(=O)N2C[C@H](O)C[C@H]2C(=O)N[C@@H](Cc2c[nH]c3ccccc23)C(=O)N[C@@H](CC(N)=O)C(=O)N[C@@H](Cc2cn(CC(=O)O)c3ccccc23)C(=O)N1C [Example 9008] | 1 to 9.9 nM |
| CCCC[C@H]1C(=O)N(C)[C@@H](CCCC)C(=O)N[C@@H](CC(C)C)C(=O)N[C@H](C(N)=O)COCC(=O)N[C@@H](Cc2ccc(C)cc2)C(=O)N2CCCC[C@H]2C(=O)N[C@@H](CC(N)=O)C(=O)N2CCC[C@H]2C(=O)N[C@@H](CN)C(=O)N[C@@H](CC(C)C)C(=O)N2C[C@H](O)C[C@H]2C(=O)N[C@@H](Cc2c[nH]c3ccccc23)C(=O)N[C@@H](CCN)C(=O)N[C@@H](Cc2cn(CC(=O)O)c3ccccc23)C(=O)N1C [Example 10527] | 10 to 99 nM |
| CCCC[C@H]1C(=O)N(C)[C@@H](CCCC)C(=O)N[C@@H](CC(C)C)C(=O)N[C@H](C(N)=O)CCCC(=O)N[C@@H](Cc2ccc(F)cc2)C(=O)N2CCCC[C@H]2C(=O)N[C@@H](CC(=O)O)C(=O)N2CCC[C@H]2C(=O)N[C@@H](CN)C(=O)N[C@@H](CC(C)C)C(=O)N2C[C@H](O)C[C@H]2C(=O)N[C@@H](Cc2c[nH]c3ccccc23)C(=O)N[C@@H](CCN)C(=O)N[C@@H](Cc2cn(CC(=O)O)c3ccccc23)C(=O)N1C [Example 10555] ([Phe(4-F)][Pip]DP[Dap]L[Hyp]W[Dab][Trp(1-CH2COOH)][NMeNle][NMeNle]L[Aad]-NH2; lactam N-14) | 10 to 99 nM |
| CCCC[C@H]1C(=O)N(C)[C@@H](CCCC)C(=O)N[C@@H](CC(C)C)C(=O)N[C@H](C(=O)NCC(N)=O)CNCC(=O)N[C@@H](Cc2ccc(O)cc2)C(=O)N(C)[C@@H](C)C(=O)N[C@@H](CC(N)=O)C(=O)N2CCC[C@H]2C(=O)N[C@@H](Cc2cnc[nH]2)C(=O)N[C@@H](CC(C)C)C(=O)N2CCC[C@H]2C(=O)N[C@@H](Cc2c[nH]c3ccccc23)C(=O)N[C@@H](CO)C(=O)N[C@@H](Cc2cn(CC(=O)O)c3ccccc23)C(=O)N1C [Example 10006] | 10 to 99 nM |
